Results published in PMC4569058, “High-Throughput Screening for Ligands of the HEPN Domain of Sacsin” (PLoS ONE, 2015).
Where “and” joins values, the source holds several entries; their conditions need not be identical. Equal values may be shown once.

How the values were obtained:
Format in all cases: binding
[1] = molecular target: T1, HEPN domain of sacsin (GST-HEPN) (Homo sapiens, UniProt Q9NZJ4); assay: FP competition assay (displacement of F12-ATP from GST-HEPN)
T1 construct: The HEPN domain (residues 4441–4579) was purified as in Kozlov et al; made in house; host or cells: E. coli BL21
T1 sequence (Q9NZJ4 4441-4579): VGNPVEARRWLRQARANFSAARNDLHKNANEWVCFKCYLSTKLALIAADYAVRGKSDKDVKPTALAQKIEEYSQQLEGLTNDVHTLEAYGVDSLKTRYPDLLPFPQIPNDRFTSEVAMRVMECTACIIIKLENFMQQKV
Protocol: […] The probe concentration was chosen to be the minimum concentration required to generate a sigmoidal binding curve. […] Next, a serial dilution of the competitor compounds (nucleotides and nucleotide analogs) starting at 10 mM were added. The fluorescence polarization signal in each well was measured on a SpectraMax M5e Microplate Reader.

[2] = molecular target: T2, 15N-HEPN (sacsin HEPN domain) (Homo sapiens, UniProt Q9NZJ4); assay: 1H-15N HSQC NMR titration; conditions: 100-400 μM 15N-HEPN, 20 mM Bis-tris pH 6.50, 70 mM NaCl, 303 K
T2 construct: The HEPN domain (residues 4441–4579) was purified as in Kozlov et al; GST (N, cleaved yes); made in house; host or cells: E. coli BL21 (M9 minimal medium with 15NH4Cl)
T2 sequence (Q9NZJ4 4441-4579): T1 sequence (Q9NZJ4 4441-4579)
Protocol: Between 100 μM and 400 μM ^15N-HEPN were used for NMR titration experiments. Heteronuclear single quantum correlation (HSQC) spectra were acquired in 20 mM Bis-tris pH 6.50 and 70 mM NaCl at 303 K using Varian 800 MHz or Bruker 600 MHz NMR spectrometers. The data were processed by NMRPipe. NMR spectra were then generated and analyzed by NMRView. The 2D HSQC spectra were overlaid with previously assigned spectrum of HEPN. The combined chemical shift perturbations in the ^1H and ^15N dimensions of each peak, calculated as (ΔδH ^2 + (0.2 × ΔδN)^2)^0.5, were plotted against the residue number.

[3] = molecular target: T1, HEPN domain of sacsin (GST-HEPN); assay: FP titration assay (fluorescent ATP probe vs GST-HEPN); conditions: for Kd: 20 mM Bis-tris pH 6.50, 100 mM NaCl
Protocol: N-methylanthraniloyl 8[(4-amino)butyl]-amino-ATP (MABA-ATP) and fluorescein-12-ATP (F12-ATP) were purchased from Jena Bioscience and PerkinElmer, respectively. The excitation and emission wavelengths of MABA-ATP were reported to be 335 nm and 440 nm, and those of F12-ATP were reported to be 496 nm and 517 nm by the commercial suppliers. The optimal excitation and emission wavelengths were determined under FP assay conditions using 0.2 μM MABA-ATP and 3.3 nM F12-ATP in 100 mM NaCl, 20 mM Bis-tris, pH 6.5.
(§1) A fixed concentration of the probe (0.5 μM MABA-ATP or 5 nM F12-ATP) was put in each well followed by a serial dilution of GST-HEPN starting at 10 μM. The assay was conducted in 20 mM Bis-tris pH 6.50 and 100 mM NaCl and the final volume in each well was 100 μl. The total fluorescence and fluorescence polarization signals of each well were recorded on a SpectraMax M5e Microplate Reader at the optimal excitation and emission wavelengths of the probes. A titration curve was generated by plotting the fluorescence polarization signals as milli-polarization units (mP) against a log scale of GST-HEPN concentration (μM).

[4] = molecular target: GST (Schistosoma japonicum, UniProt P08515); assay: GST control FP titration; conditions: 0.5 μM MABA-ATP or 5 nM F12-ATP titrated against GST
Chain of GST (P08515 whole entry): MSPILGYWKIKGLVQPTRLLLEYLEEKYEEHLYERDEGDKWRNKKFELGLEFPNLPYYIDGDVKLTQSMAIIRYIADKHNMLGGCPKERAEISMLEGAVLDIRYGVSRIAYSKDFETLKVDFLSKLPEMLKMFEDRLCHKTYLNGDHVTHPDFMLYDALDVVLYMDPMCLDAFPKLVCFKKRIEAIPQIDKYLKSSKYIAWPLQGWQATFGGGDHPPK
Protocol: as §1
Supplementary file pone.0137298.s002.tif: S2 Fig GST control titration. 0.5 μM MABA-ATP and 5 nM F12-ATP were titrated against various concentrations of GST to verify whether GST contributes to the observed FP signal in the presence of GST-HEPN. […] (TIF) Click here for additional data file.

[5] = 5 nM F12-ATP and 120 nM GST-HEPN, read-out: affinity for GST-HEPN estimated from FP competition curve, Kd
[6] = HTS hit confirmation, 5 nM F12-ATP and 200 nM GST-HEPN, read-out: Binding Affinity for HEPN

Compound	Kd [1, 5]	binding to HEPN observed by NMR (chemical shift perturbations) [2]	other results
Nc1ncnc2c1ncn2[C@@H]1O[C@H](COP(=O)(O)O)[C@@H](O)[C@H]1O [AMP, adenosine 5´-monophosphate]	102 µM		
Nc1ncnc2c1ncn2[C@@H]1O[C@H](COP(=O)(O)OP(=O)(O)OP(=O)(O)OP(=O)(O)OC[C@H]2O[C@@H](n3cnc4c(N)ncnc43)[C@H](O)[C@@H]2O)[C@@H](O)[C@H]1O [Ap4A, p1,-p4-di(adenosine-5´) tetraphosphate]	20.5 µM		
O=P(O)(O)OC1C(OP(=O)(O)O)C(OP(=O)(O)O)C(OP(=O)(O)O)C(OP(=O)(O)O)C1OP(=O)(O)O (stereo not drawn) [IP6, phytic acid/myo-inositol hexakis(dihydrogen phosphate)]	8.46 µM		
CC(C)(COP(=O)(O)OP(=O)(O)OC[C@H]1O[C@@H](n2cnc3c(N)ncnc32)[C@H](O)[C@@H]1OP(=O)(O)O)[C@@H](O)C(=O)NCCC(=O)NCCS [CoA, coenzyme A]	5.2 µM		
Nc1nc2c(ncn2[C@@H]2O[C@H](COP(=O)(O)OP(=O)(O)OP(=O)(O)O)[C@@H](O)[C@H]2O)c(=O)[nH]1 [GTP, guanosine 5´-triphosphate]	0.81 µM	binds to HEPN at its dimerization surface	fold higher affinity relative to ATP [1]: approximately 6 fold
Nc1ncnc2c1ncn2[C@@H]1O[C@H](COP(=O)(O)OP(=O)(O)O)[C@@H](O)[C@H]1O [ADP, adenosine 5´-diphosphate]	19.2 µM		
O=c1c(C(c2ccc3c(c2)OCO3)c2c(O)nc3n(c2=O)CCS3)c(O)nc2n1CCS2 [AN670]		Binding was observed by NMR	fold higher affinity than the other two HTS hits AK968 and AN652 [1]: two- to three-fold; Kd [1, 6]: 1.1 µM
fluorescein-12-ATP [F12-ATP]		interacts with all HEPN residues involved in GTP-binding	Kd ([3]; 5 nM F12-ATP titrated against GST-HEPN, read-out: binding affinity of the probe estimated from the titration curve (KD1)): 0.078 µM and ~0.078 µM; fold decrease in affinity upon the addition of MgCl2 ([3]; F12-ATP vs GST-HEPN titration in the presence of 1 mM MgCl2 compared to without MgCl2): 10 fold; fold higher affinity relative to ATP [1]: 65 fold; binding of probe to GST alone [4]: did not show binding
Nc1ncnc2c1ncn2[C@@H]1O[C@H](COP(=O)(O)OP(=O)(O)OP(=O)(O)OC[C@H]2O[C@@H](n3cnc4c(N)ncnc43)[C@H](O)[C@@H]2O)[C@@H](O)[C@H]1O [Ap3A, p1, p3-di(adenosine-5´) triphosphate]	51.2 µM		
Nc1nc2c(ncn2[C@@H]2O[C@H](COP(=O)(O)OP(=O)(O)OP(=O)(O)OP(=O)(O)OC[C@H]3O[C@@H](n4cnc5c(=O)[nH]c(N)nc54)[C@H](O)[C@@H]3O)[C@@H](O)[C@H]2O)c(=O)[nH]1 [Gp4G, p1, p4-di(guanosine-5´) tetraphosphate]	1.23 µM		
Nc1nc2c(ncn2[C@@H]2O[C@H](COP(=O)(O)OP(=O)(O)OP(=O)(O)OP(=O)(O)O)[C@@H](O)[C@H]2O)c(=O)[nH]1 [G-tetra-P, guanosine 5´-tetraphosphate]	0.47 µM	Changes in chemical shifts were observed for most GTP-binding residues	fold higher affinity for HEPN than GTP [1]: about two-fold
Cc1ccccc1NS(=O)(=O)c1ccc(NC(=O)c2n[nH]c([N+](=O)[O-])c2Br)cc1 [AK968]		Binding was observed by NMR	Kd [1, 6]: 2.1 µM
O=C(Nc1cccc2c(=O)[nH][nH]c(=O)c12)c1ccc(=O)oc1 [AN652]		Binding was observed by NMR	Kd [1, 6]: 2.8 µM
O=C(OCCCl)Oc1c(Br)cc2sc(=O)oc2c1Br [AG205]			Kd [1, 6]: 9.4 µM
O=C(O)CN(CCN(CC(=O)O)CC(=O)O)CC(=O)O [EDTA]	~510 µM and 510 µM	interacts with GTP- and malonate ion-binding site	fold weaker affinity than GTP [1]: ~ 500 fold
Nc1ncnc2c1ncn2C1OC(COP(=O)(O)OP(=O)(O)OCC2OC(O)C(O)C2O)C(O)C1O (stereo not drawn) [ADP-ribose, adenosine 5´-diphosphoribose]	205 µM		
CNc1ccccc1C(=O)NCCCCNc1nc2c(N)ncnc2n1[C@@H]1O[C@H](COP(=O)(O)OP(=O)(O)OP(=O)(O)O)[C@@H](O)[C@H]1O [MABA-ATP, N-methylanthraniloyl 8[(4-amino)butyl]-amino-ATP]			Kd ([3]; 0.5 μM MABA-ATP titrated against GST-HEPN, read-out: binding affinity of the probe estimated from the titration curve): ~3 µM and 3 µM; binding of probe to GST alone [4]: did not show binding
Nc1nc2c(ncn2[C@@H]2O[C@H](COP(=O)(O)OP(=O)(O)O)[C@@H](O)[C@H]2O)c(=O)[nH]1 [GDP, guanosine 5´-diphosphate]	1.23 µM		
